Laboratory results as given in ChEMBL document CHEMBL2150872, “A transcription factor hijacking to regulate RARα by using a chimeric molecule of retinoic acid and a DNA alkylator” (Bioorg Med Chem Lett, 2011).
Calls of active or inactive are those of the source. The calls are words filed in the database; no cut-off is given here.

Experiments:
[1] = Induction of RARalpha recruitment to [gamma-32P]-5'-end labeled pUC18 DNA fragment at 1 mM after 30 mins by EMSA
Nucleic Acid [2] = experiment: Binding affinity to [gamma-32P]-5'-end labeled pUC18 DNA fragment assessed as alkylation at N7 positions of guanine base by strand-breakage assay; type: nucleic-acid assay
[3] = molecular target: T1, Retinoic acid receptor alpha (Homo sapiens) (UniProt P10276); experiment: Displacement of [3H]ATRA from RARalpha overexpressed in COS cell extract after 12 hrs by liquid scintillation counting; type: cell-free
T1 sequence (whole entry): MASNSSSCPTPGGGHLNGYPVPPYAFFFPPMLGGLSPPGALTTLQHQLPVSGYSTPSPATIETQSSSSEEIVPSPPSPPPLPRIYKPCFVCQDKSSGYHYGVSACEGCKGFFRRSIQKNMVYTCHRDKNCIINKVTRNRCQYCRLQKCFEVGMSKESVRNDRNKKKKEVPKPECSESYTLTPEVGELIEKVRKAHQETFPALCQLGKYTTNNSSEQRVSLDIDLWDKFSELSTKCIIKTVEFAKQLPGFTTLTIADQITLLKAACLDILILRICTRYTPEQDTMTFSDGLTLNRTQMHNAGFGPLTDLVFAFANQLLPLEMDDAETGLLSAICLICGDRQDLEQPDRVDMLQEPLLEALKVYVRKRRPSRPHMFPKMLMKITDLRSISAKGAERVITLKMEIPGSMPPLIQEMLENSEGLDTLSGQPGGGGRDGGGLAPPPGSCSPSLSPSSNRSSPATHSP

[4] = Induction of RARalpha recruitment to [gamma-32P]-5'-end labeled pUC18 DNA fragment at 10 mM after 30 mins by EMSA
Nucleic Acid [5] = experiment: Binding affinity to [gamma-32P]-5'-end labeled pUC18 DNA fragment by autoradiography; type: nucleic-acid assay
[6] = molecular target: T1, Retinoic acid receptor alpha (Homo sapiens); experiment: Inhibition of transactivation of RARalpha overexpressed in COS cells after 24 hrs by luciferase reporter gene assay in presence of ATRA; type: cell-based
[7] = molecular target: T1, Retinoic acid receptor alpha (Homo sapiens); experiment: Displacement of [3H]ATRA from RARalpha overexpressed in COS cell extract at 10 nM after 12 hrs by liquid scintillation counting; type: cell-free

Row | SMILES | Activity [1] | Activity (Nucleic Acid [2]) | Activity [3] | Activity [4] | Activity (Nucleic Acid [5]) | inhibition [6] | Activity [7]
1 | O=C(O)CCCc1ccc(N(CCCl)CCCl)cc1 | inactive | Active | – | – | – | – | –
2 | CC1=C(/C=C/C(C)=C/C=C/C(C)=C/C(=O)NCCCc2ccc(N(CCCl)CCCl)cc2)C(C)(C)CCC1 | – | Active | Dose-dependent effect | Active | Active | Dose-dependent effect | Active
